Measurements as given in US8748436B2, “Carboxylic acid derivatives having a 2,5,7-substituted oxazolopyrimidine ring” (Sanofi, priority 2010, dated 2014).

Molecular target: T1, human Edg-1 receptor (Homo sapiens, UniProt P21453)
T1 construct: FLAG (N); expressed in transfected cells; membrane preparation
Assay: GTP-γ-S assay using human Edg-1 receptors (scintillation proximity assay, CHO Flp-In cell membrane preparation)
Format: biochemical
Details: test compound at 10 μM; high control 10 μM S1P regarded as 100% activation; [35S]GTP-γ-S binding, triplicate
Source text: A) GTP-γ-S Assay Using Human Edg-1 Receptors
In order to determine the Edg-1 receptor activation by the compounds of the invention, a GTP-γ-S (guanosine 5′-[thio]triphosphate) assay for G-protein coupled receptor binding based on the scintillation proximity assay principle was used, employing a cell membrane preparation from a CHO Flp-In cell line which constitutively overexpresses the human Edg-1 receptor.
The Flp-In™ expression system (Invitrogen, cat. no. K6010-01) allows the generation of stable mammalian cell lines into which the gene of interest has been integrated through homologous recombination at a specific genomic location called Flp Recombination Target (FRT) site by means of a Flp recombinase encoded by the pOG44 expression plasmid. The integration of the pcDNA5/FRT expression construct into the Flp-In host cell line genome results in the transcription of the gene of interest. The stably transfected cells become hygromycin-resistant.
One day prior to transfection, 200 000 Flp-In-CHO cells were seeded in Ham F-12 medium (Invitrogen, cat. no. 31765) supplemented with 10% fetal calf serum (FCS; Perbio Science, cat. no. SH30068.03) in a 6-well plate and incubated at 37° C./5% CO2 overnight. Using the FuGENE® 6 transfection reagent (Roche, cat. no. 11988387001), cells were cotransfected with the Flp recombinase expression plasmid pOG44 and a modified plasmid additionally containing the edg-1 gene (accession no. NM_001400) termed as pcDNA5-FRT-TO_nFLAG_DEST-EDG-1 with a 9:1 ratio. To obtain the modified pcDNA5-FRT-TO_nFLAG_DEST plasmid, the Invitrogen plasmid pcDNA5/FRT/TO (Invitrogen, cat. no. V6520-20) was adapted to the Gateway® (Invitrogen) cloning system by inserting a Gateway cassette containing attR recombination sites flanking a ccdB gene and a chloramphenicol-resistance gene (Gateway conversion system, Invitrogen, cat. no. 11828-029). In addition a FLAG tag epitope was added before the 5′ att recombination site to allow recombinant expression of N-terminally FLAG-tagged proteins.
For the transfection of one well, 1.08 μg of pOG44 and 0.12 μg of pcDNA5-FRT-TO_nFLAG_DEST-EDG-1 were mixed to 100 μl of serum-free Ham F-12 medium containing 6 μl of FuGENE® 6 transfection reagent. After 20 min of incubation, the transfection reagent/DNA complex was distributed dropwise on the cells. The cells were incubated for 24 h at 37° C. Then the cells from 3 wells were transferred to a T75 flask (Greiner Cellstar®, cat. no. 658175) containing Ham F-12 medium supplemented with 10% of FCS but without antibiotic and were incubated another 24 h. 48 h after transfection, the medium was replaced by selection medium (Ham F-12 supplemented with 10% of FCS and 300 μg/ml of hygromycin B (Invitrogen, cat. no. 10687-010)). The medium was exchanged every 2 to 3 days until a resistant population of cells had grown. […] After 2 weeks of selection, the cells were transferred into T175 flasks (Greiner Cellstar®, cat. no. 660175) and cultivated for batch production. Cells were harvested from the culture flasks by short treatment (2 to 5 min) with Accutase (PAA, cat. no. L11-007), resuspended in selection medium (see above) and centrifuged at 200×g for 5 min. The cells were resuspended in a mixture of 90% of FCS and 10% of dimethylsulfoxide and stored frozen in liquid nitrogen.
A membrane preparation was obtained by standard methods from the afore-described CHO Flp-In cell line constitutively overexpressing the human Edg-1 receptor. Briefly, the cryopreserved cells were taken in culture and grown until confluency in T175 cell culture flasks (Becton Dickinson, cat. no. 35 5001). […]

T1 sequence (P21453 whole entry): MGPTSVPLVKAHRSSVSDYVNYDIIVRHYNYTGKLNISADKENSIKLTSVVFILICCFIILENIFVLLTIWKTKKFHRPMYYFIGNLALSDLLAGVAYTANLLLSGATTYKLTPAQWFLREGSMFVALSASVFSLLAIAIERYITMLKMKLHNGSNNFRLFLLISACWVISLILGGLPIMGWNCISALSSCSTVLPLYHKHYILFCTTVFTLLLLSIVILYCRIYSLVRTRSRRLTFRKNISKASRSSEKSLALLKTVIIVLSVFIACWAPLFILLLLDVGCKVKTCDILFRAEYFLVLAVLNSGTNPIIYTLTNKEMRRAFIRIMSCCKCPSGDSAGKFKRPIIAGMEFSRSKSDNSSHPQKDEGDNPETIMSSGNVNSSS

Question: For `CCCOc1nc(OC(C)CC(F)(F)F)nc2oc(-c3cc(C)c(OCC(=O)O)c(C)c3)nc12` (stereo not shown) [Example 21, {2,6-dimethyl-4-[7-propoxy-5-(3,3,3-trifluoro-1-methyl-propoxy)-oxazolo[5,4--d]pyrimidin-2-yl]-phenoxy}-acetic acid], which “% Activation (Edg-1 receptor activation in percent of the activation by 10 μM S1P)” value is on record?
Answer: 81%

Same assay, conditions: test compound at 10 μM; high control 10 μM S1P regarded as 100% activation; [35S]GTP-γ-S binding, triplicate; read-out: % Activation (Edg-1 receptor activation in percent of the activation by 10 μM S1P)

Question: With `CCCOc1nc(O[C@@H]2CCCC[C@H]2F)nc2oc(-c3cc(C)c(OCC(=O)O)c(C)c3)nc12` (relative stereo) [Example 3, {4-[5-(trans-2-Fluoro-cyclohexyloxy)-7-propoxy-oxazolo[5,4-d]pyrimidin-2-yl]-2,6-dimethyl-phenoxy}-acetic acid] as the molecule, how does the activation at 10 µM read?
Answer: 65%

Question: Which activation at 10 µM does the source give for `CCCOc1nc(Oc2cc(F)ccc2F)nc2oc(-c3cc(C)c(OCC(=O)O)c(C)c3)nc12` [Example 1, {4-[5-(2,5-Difluoro-phenoxy)-7-propoxy-oxazolo[5,4-d]pyrimidin-2-yl]-2,6-dimethyl-phenoxy}-acetic acid] here?
Answer: 100%

Question: `CCCOc1nc(OC2CCCC2)nc2oc(-c3cc(C)c(OCC(=O)O)c(C)c3)nc12` [Example 2, [4-(5-Cyclopentyloxy-7-propoxy-oxazolo[5,4-d]pyrimidin-2-yl)-2,6-dimethyl-phenoxy]-acetic acid] was tested. Which activation at 10 µM did it give?
Answer: 90%

Question: For `CCCOc1nc(Oc2ccccc2F)nc2oc(-c3cc(C)c(OCC(=O)O)c(C)c3)nc12` [Example 4, {4-[5-(2-fluoro-phenoxy)-7-propoxy-oxazolo[5,4-d]pyrimidin-2-yl]-2,6-dimethyl-phenoxy}-acetic acid], which activation at 10 µM is on record?
Answer: 76%

Question: With `CCCOc1nc(Oc2cc(F)ccc2C)nc2oc(-c3cc(C)c(OCC(=O)O)c(C)c3)nc12` [Example 5, {4-[5-(5-fluoro-2-methyl-phenoxy)-7-propoxy-oxazolo[5,4-d]pyrimidin-2-yl]-2,6-dimethyl-phenoxy}-acetic acid] as the molecule, how does the activation at 10 µM read?
Answer: 91%

Question: For `CCCOc1nc(Oc2ccc(C)c(F)c2)nc2oc(-c3cc(C)c(OCC(=O)O)c(C)c3)nc12` [Example 6, {4-[5-(3-fluoro-4-methyl-phenoxy)-7-propoxy-oxazolo[5,4-d]pyrimidin-2-yl]-2,6-dimethyl-phenoxy}-acetic acid], which activation at 10 µM is on record?
Answer: 73%

Question: Which activation at 10 µM does the source give for `CCCOc1nc(Oc2cccnc2)nc2oc(-c3cc(C)c(OCC(=O)O)c(C)c3)nc12` [Example 7, {2,6-dimethyl-4-[7-propoxy-5-(pyridin-3-yloxy)-oxazolo[5,4-d]pyrimidin-2-yl]-phenoxy}-acetic acid] here?
Answer: 87%

Question: Which activation at 10 µM does the source give for `CCCOc1nc(Oc2ccc(F)cc2F)nc2oc(-c3cc(C)c(OCC(=O)O)c(C)c3)nc12` [Example 8, {4-[5-(2,4-difluoro-phenoxy)-7-propoxy-oxazolo[5,4-d]pyrimidin-2-yl]-2,6-dimethyl-phenoxy}-acetic acid] here?
Answer: 84%

Question: `CCCOc1nc(Oc2ccccc2)nc2oc(-c3cc(C)c(OCC(=O)O)c(C)c3)nc12` [Example 9, [2,6-dimethyl-4-(5-phenoxy-7-propoxy-oxazolo[5,4-d]pyrimidin-2-yl)-phenoxy]-acetic acid] was tested. Which activation at 10 µM did it give?
Answer: 84%

Question: With `CCCOc1nc(Oc2cccc(Cl)c2)nc2oc(-c3cc(C)c(OCC(=O)O)c(C)c3)nc12` [Example 10, {4-[5-(3-chloro-phenoxy)-7-propoxy-oxazolo[5,4-d]pyrimidin-2-yl]-2,6-dimethyl-phenoxy}-acetic acid] as the molecule, how does the activation at 10 µM read?
Answer: 86%

Question: Which activation at 10 µM does the source give for `CCCOc1nc(OCC2CCCCC2)nc2oc(-c3cc(C)c(OCC(=O)O)c(C)c3)nc12` [Example 11, [4-(5-cyclohexylmethoxy-7-propoxy-oxazolo[5,4-d]pyrimidin-2-yl)-2,6-dimethyl-phenoxy]-acetic acid] here?
Answer: 76%

Question: `CCCOc1nc(OCC(C)C)nc2oc(-c3cc(C)c(OCC(=O)O)c(C)c3)nc12` [Example 12, [4-(5-isobutoxy-7-propoxy-oxazolo[5,4-d]pyrimidin-2-yl)-2,6-dimethyl-phenoxy]-acetic acid] was tested. Which activation at 10 µM did it give?
Answer: 97%

Question: `CCCOc1nc(OCC2CCC2)nc2oc(-c3cc(C)c(OCC(=O)O)c(C)c3)nc12` [Example 13, [4-(5-cyclobutylmethoxy-7-propoxy-oxazolo[5,4-d]pyrimidin-2-yl)-2,6-dimethyl-phenoxy]-acetic acid] was tested. Which activation at 10 µM did it give?
Answer: 99%

Question: For `CCCOc1nc(OC2CCC2)nc2oc(-c3cc(C)c(OCC(=O)O)c(C)c3)nc12` [Example 14, [4-(5-cyclobutoxy-7-propoxy-oxazolo[5,4-d]pyrimidin-2-yl)-2,6-dimethyl-phenoxy]-acetic acid], which activation at 10 µM is on record?
Answer: 88%

Question: For `CCCOc1nc(OCCC)c2nc(-c3cc(C)c(OCC(=O)O)c(C)c3)oc2n1` [Example 15, [4-(5,7-dipropoxy-oxazolo[5,4-d]pyrimidin-2-yl)-2,6-dimethyl-phenoxy]-acetic acid], which activation at 10 µM is on record?
Answer: 98%

Question: How did the activation at 10 µM turn out when `CCCOc1nc(OCCC(F)(F)F)nc2oc(-c3cc(C)c(OCC(=O)O)c(C)c3)nc12` [Example 16, {2,6-dimethyl-4-[7-propoxy-5-(3,3,3-trifluoro-propoxy)-oxazolo[5,4-d]pyrimidin-2-yl]-phenoxy}-acetic acid] was run?
Answer: 107%

Question: For `CCCOc1nc(OCC)nc2oc(-c3cc(C)c(OCC(=O)O)c(C)c3)nc12` [Example 17, [4-(5-ethoxy-7-propoxy-oxazolo[5,4-d]pyrimidin-2-yl)-2,6-dimethyl-phenoxy]-acetic acid], which activation at 10 µM is on record?
Answer: 70%

Question: Which activation at 10 µM does the source give for `CCCOc1nc(OCC2CCCC2)nc2oc(-c3cc(C)c(OCC(=O)O)c(C)c3)nc12` [Example 18, [4-(5-cyclopentylmethoxy-7-propoxy-oxazolo[5,4-d]pyrimidin-2-yl)-2,6-dimethyl-phenoxy]-acetic acid] here?
Answer: 83%

Question: How did the activation at 10 µM turn out when `CCCOc1nc(OCC2CCCO2)nc2oc(-c3cc(C)c(OCC(=O)O)c(C)c3)nc12` (stereo not shown) [Example 19, {2,6-dimethyl-4-[7-propoxy-5-(tetrahydrofuran-2-ylmethoxy)-oxazolo[5,4-d]pyrimidin-2-yl]-phenoxy}-acetic acid] was run?
Answer: 84%

Question: Which activation at 10 µM does the source give for `CCCOc1nc(OC(C)CC)nc2oc(-c3cc(C)c(OCC(=O)O)c(C)c3)nc12` (stereo not shown) [Example 20, [4-(5-sec-butoxy-7-propoxy-oxazolo[5,4-d]pyrimidin-2-yl)-2,6-dimethyl-phenoxy]-acetic acid] here?
Answer: 80%

Question: For `CCCOc1nc(OCCC(C)C)nc2oc(-c3cc(C)c(OCC(=O)O)c(C)c3)nc12` [Example 22, {2,6-dimethyl-4-[5-(3-methyl-butoxy)-7-propoxy-oxazolo[5,4-d]pyrimidin-2-yl]-phenoxy}-acetic acid], which activation at 10 µM is on record?
Answer: 92%

Question: For `CCCOc1nc(OCCC2CC2)nc2oc(-c3cc(C)c(OCC(=O)O)c(C)c3)nc12` [Example 23, {4-[5-(2-cyclopropyl-ethoxy)-7-propoxy-oxazolo[5,4-d]pyrimidin-2-yl]-2,6-dimethyl-phenoxy}-acetic acid], which activation at 10 µM is on record?
Answer: 98%

Question: How did the activation at 10 µM turn out when `CCCOc1nc(OC(C)C(F)(F)F)nc2oc(-c3cc(C)c(OCC(=O)O)c(C)c3)nc12` (stereo not shown) [Example 24, {2,6-dimethyl-4-[7-propoxy-5-(2,2,2-trifluoro-1-methyl-ethoxy)-oxazolo[5,4-d]pyrimidin-2-yl]-phenoxy}-acetic acid] was run?
Answer: 85%

Question: With `CCOc1nc(Oc2cccc(F)c2)nc2oc(-c3cc(C)c(OCC(=O)O)c(C)c3)nc12` [Example 25, {4-[7-ethoxy-5-(3-fluorophenoxy)-oxazolo[5,4-d]pyrimidin-2-yl]-2,6-dimethyl-phenoxy}-acetic acid] as the molecule, how does the activation at 10 µM read?
Answer: 84%
